Reference: US20100298434A1, “NEUROPROTECTION AND PREVENTION OF DOPAMINERGIC CELL DEATH BY TARGETING NUR77 TRANSLOCATION” (priority 2009, published 2010)

What was measured:
Nur77 = Nur77 subcellular distribution (nuclei-cytoplasmic fractioning, Western blot) in PC12 cells; format: cell-based, rat
Protocol: (§1) PC12 cells were obtained from ATCC CRL 1721 (VA, USA) and were grown in phenol red-free RPMI 1640 medium supplemented with 5% fetal calf serum (FCS), 10% horse serum and gentamicin (50 μg/ml). They were cultured on Primaria 6-well plates (BD Falcon, Ontario, Canada) for RT-PCR experiments and immunoblotting; on Primaria 96-wells plates for LDH cytoxicity experiments and finally on poly-L-lysine-coated circular glass coverslips for immunocytofluorescence assays. Cells were fed fresh medium every 3 days and maintained at 37° C. in a humidified 5% CO2 atmosphere. […] Control conditions were without toxin. […] For the present study, kinetic time periods were: 0 h, 3 h, 6 h, 9 h, 12 h and 24 h. After each experiment, culture medium was harvested for cytotoxicity detection and cells were collected for RT-PCR and ICF/Fractioning (Gelinas & Martinoli 2002; Gagne et al. 2003; Gelinas et al. 2004; Chiasson et al. 2006).
PC12 cells were grown and treated in 6-wells plates. We used a nuclear extraction kit (Active Motif, Carlsbad, Calif.) to separate cytoplasmic protein content from nuclear protein content. Briefly, cells were washed in wells with a mixture of PBS and phosphatase inhibitors, and then harvested in centrifuge tubes. Hypotonic buffer swelled cytoplasmic membrane, which an afterward mild detergent ruptured.
Centrifugation at 14,000×g pelleted the intact nuclei, and soluble material was preserved as the cytoplasmic fraction. Nuclei were the lysed with the provided lysis buffer. Protein dosage was performed with a bicinchoninic acid (BCA)-based SDS-compatible Protein Assay Kit (Pierce, Rockfort, Ill.) on each fraction of each sample.
Equal amounts of nuclei or cytoplasmic protein fractions were loaded onto a 10% polyacrylamide-SDS gel. After electrophoretic separation (180 volts, 45 min.) the polyacrylamide gels were transferred onto […] (PVDF) membranes (0.22 μm pore size, Bio-Rad) at 50 V for 2 h. The membranes were blocked with 5% non-fat powder milk for 1 h. […] Quantitative analysis was performed with the Fluor Chem SP software.

Nur77 mRNA = assay: 6-hydroxydopamine lesions in rats, Nur77 mRNA in situ hybridization in substantia nigra; format: in vivo; conditions: intracerebral 6-OHDA 12 μg/3 μl
Protocol: (§2) Fifteen male Sprague—Dawley albino rats (Charles River, Montreal, Canada) weighing 250-275 g at the beginning of the experiment were used in this study. They were housed two per cage in a temperature-controlled environment maintained under a 12-h light/dark cycle with ad libitum access to food and water. Handling of the rats was performed in accordance with the Canadian Guide for the Care and Use of Laboratory animals and all procedures were approved by the Institutional Animal Care Committee of Laval University. All efforts were made to minimize the number of animals used and their suffering. Rats were anaesthetized in an induction chamber with 4% isoflurane in 95% O2/5% CO2 before being transferred to a stereotaxic frame and maintained at 1.5-3% isoflurane. A sagittal cut exposed bregma and a hole was drilled.
Cryostat-cut brain sections (12 μm) were mounted on Superfrost slides (Fisher Scientific, Toronto, ON, Canada) and stored at −80° C. Specific [^35S]UTP-labeled complementary.
RNA (cRNA) probes were used and preparation of the Nur77 probe was performed as described previously (Beaudry et al., 2000). The antisense cRNA probe for Nur77 stems from a 2.4-kb EcoRI fragment of a full-length rat Nur77 cDNA subcloned into pBluescript SK-1 and linearized with BamHI. […]

substantia nigra neurons = assay: 6-hydroxydopamine lesions in rats, Fluoro-Jade B staining of degenerating neurons; format: in vivo; conditions: intracerebral 6-OHDA
Protocol: as §2
The brain sections were mounted on gelatin-coated slides (Brain Research Laboratories, Newton, Mass.) and air-dried overnight. They were dehydrated in ascending grades of ethanol, hydrated in descending grades of ethanol and finally rinsed in milliQ water. Afterwards, the sections were dipped in a 0.06% potassium permanganate solution bath for 10 min and washed in milliQ water. […] Degenerating neurons and fibers appeared green and nuclei emerged blue in fluorescence.

PC12 cells [1] = assay: TUNEL/DAPI apoptosis in PC12 cells; format: cell-based, rat; conditions: 6-OHDA, at 12 and 24 h
Protocol: as §1
PC12 cells were grown and treated on circular glass coverslips, then fixed in 4% paraformaldehyde for 1 hour at 4° C. […] Images were acquired with an Olympus IX-70 inverted microscope with a high-pressure mercury burner and necessary filter cubes (Olympus U-MNUV, U-MNIBA and U-MWIG), and were analyzed with Bio-Rad's QuantityOne software. […]

PC12 cells [2] = assay: LDH cytotoxicity in PC12 cells; format: cell-based
Protocol: They were cultured on Primaria 6-well plates (BD Falcon, Ontario, Canada) for RT-PCR experiments and immunoblotting; on Primaria 96-wells plates for LDH cytoxicity experiments and finally on poly-L-lysine-coated circular glass coverslips for immunocytofluorescence assays. Cells were fed fresh medium every 3 days and maintained at 37° C. in a humidified 5% CO2 atmosphere. […] Control conditions were without toxin.
Briefly, media were collected and centrifuged at 800×g at 4° C. for 2 min. The cell-free supernatant (100 μl) was then used to determine LDH activity by measuring the absorbance at a wavelength of 490 nm (A490) on a microplate reader (Multiscan Ascent Microplate reader, Thermolab System, Franklin Mass.) according to the working procedures of Roche's protocol. Total cellular LDH was determined by lysing cells with 1% Triton X-100.

nigral TH neurons = assay: MPTP lesions in mice, stereological counts of TH-immunoreactive neurons; format: in vivo; conditions: Nur77 (+/+) mice, 7 i.p. injections MPTP-HCl 20 mg/kg, 14 days after last injection
Description: Wild-type (Nur77(+/+)) male (C57BL/6, weighing 20-25 g) mice were purchased from Charles River, Canada. Nur77 knockout (Nur77(−/−)) mice were developed and graciously provided by Dr Jeff Milbrandt at the Washington University, St. Louis, Mo., USA (Lee et al., 1995). These mice are healthy and reproduce normally (Crawford et al., 1995; Lee et al., 1995). They were produced in a mixed background and have been backcrossed into the C57BL/6 strain for at least ten generations to reduce genetic background heterogeneity (Jeff Milbrandt, personal communication). We maintain a Nur77(−/−) mouse colony at the animal care facility of our research center. Young adult Nur77(−/−) male mice weighing 20-25 g were used for present experiments. All mice were housed three or four per cage in a temperature-controlled environment and maintained under a 12-h light-dark cycle with ad libitum access to food and water.
In total, 17 mice (8 Nur77 (+/+) and 9 Nur77 (−/−)) received seven intraperitoneal (i.p.) injections of MPTP-HCl (20 mg/kg free base; Sigma, St. Louis, Mo.) dissolved in NaCl 0.9%. MPTP was administered twice on the first 2 days of the experimental protocol at an interval of 12 h and once a day on 3 subsequent days (Tremblay et al. 2006; Gibrat et al., 2010). […]
The loss of DA neurons was determined by counting TH-immunoreactive cells under bright-field illumination. […]

NCCc1cc(O)c(O)cc1O [6-OHDA, 6-hydroxydopamine]
start of Nur77 upregulation and translocation from the nucleus to the cytosol (Nur77; 6-OHDA 30 μM): 9 h | earliest time of Nur77 mRNA induction in midbrain dopaminergic neurons (Nur77 mRNA): 3 h | time at which Fluoro-Jade staining is also observed (substantia nigra neurons): 3 h | time of maximal Fluoro-Jade staining (substantia nigra neurons): 48 h | cells showing signs of apoptosis (co-localization of DAPI and TUNEL) (PC12 cells [1]): more than 90% | start of significant rise of cellular death (LDH activity) (PC12 cells [2]; PC12 cells, 10 μM 6-OHDA): 12 h | cell death (PC12 cells [2]; PC12 cells, 6-OHDA 30 μM, after 24 h): ≤ 70%

CC/C=C\C/C=C\C/C=C\C/C=C\C/C=C\C/C=C\CCC(=O)O [DHA, docosahexaenoic acid]
cytotoxicity induced by 6-OHDA (PC12 cells [2]; PC12 cells, 6-OHDA 30 μM, co-incubation with DHA 10^−6 M): significantly reduced | cytotoxicity induced by MPP+ (PC12 cells [2]; PC12 cells, MPP+ 5 mM, co-incubation with DHA 10^−6 M): significantly reduced

CCC(=C/[C@H](C)C/C=C/C(C)=C/[C@@H](C)C(=O)[C@@H](C)[C@H](O)[C@@H](C)C/C(C)=C/C(=O)O)/C=C/[C@@H]1OC(=O)C=C[C@@H]1C [LMB, leptomycin B]
6-OHDA-induced translocation of Nur77 from the nucleus to the cytosol (Nur77; 6-OHDA 30 μM, co-incubation with LMB 1 nM): blocked | PC12 cell survival (PC12 cells [2]; LMB alone): no effect | 6-OHDA induced cell death (PC12 cells [2]; PC12 cells, co-incubation of LMB with 6-OHDA, 24 h): significant reduction

C[n+]1ccc(-c2ccccc2)cc1 [MPP+, 1-methyl-4-phenylpyridinium ion]
beginning of Nur77 protein translocation from the nucleus to the cytosol (Nur77; MPP+ 5 mM): 6 h

CN1CC=C(c2ccccc2)CC1 [MPTP, 1-methyl-4-phenyl-1,2,3,6-tetrahydropyridine]
number of nigral TH neurons (nigral TH neurons): significantly reduced
